The experiment has as its target T1, SMARCA2 (Homo sapiens, UniProt P51531).
T1 construct: endogenous in cells; host or cells: NCI-H1299
The experiment in a line: MSD SMARCA2 degradation in NCI-H1299 cell line. Type of experiment: cell-based. The following applies: NCI-H1299 cells, percentage of SMARCA2 degradation after 24 hours. The procedure:
Example 14. MSD SMARCA2 Degration in NCI-H1299 Cell Line
Cell Culture: Cells were cultured in exponential growth phase.
Compound Preparation and Treatment: NCI-H1299 cells were seeded into the 96-well plate at 4.0*10^4 cells per 100ul per well. Incubate the plate in the incubator overnight. The next day, compounds were diluted to designed stock concentration by TECAN, then perform a 3 fold, 9-point dilution via transferring 15 uL compound into 30 μL DMSO using Apricot. 200 nL diluted compound from compound source plate were transferred into the 96-intermediate plate as designated by using Echo550, followed with 100 ul culture medium to make the 2× compound solution. Cell plate were changed with 80 ul of fresh culture medium and 80 ul of 2× compound solution was added into the well to achieve the final designed concentration. Cell plate was then shaken at 720 rpm for 5 min and incubated for 24 hours in the incubator.
Sample Preparation: Media was aspirated from the cultures and the plate was washed with PBS twice. 60 ul of pre-chilled PIPA lysis buffer (Boston BioProducts BP-115D) with protease inhibitor were directly added into the well to lyze the cells for 20 minutes at 4° C. Cell lysates were collected.
MSD Procedure: The MSD plate was coated with 40 ul cell lysate and incubated at 4° C. overnight. The next day, the MSD coated bare plate was washed 3 times with 150 ul 1×TBST per well, blocked with 150 ul of blocking buffer per well, and shaken for 1 hour at RT, 600 rpm. Blocking buffer was 3% Blocker A in TBST. MSD plate was then washed 3 times with 150 ul 1×TBST per well and Primary Detection antibody (Rabbit anti-SMARCA2/BRM antibody, 100 μg/ml, ab223735) was added to a final [conc.]: 0.3 ug/ml, 25ul/well and shaken for 1 hour at RT, 600 rpm. Antibody was prepared in Antibody Detection buffer (1% Blocker A in 1×TBST). The MSD plate was then washed 3 times with 150 ul 1×TBST per well. Secondary Detection antibody (SULFO-TAG anti-species antibody) was then added to a final [conc.]: 1 μg/ml, 25 ul/well, and shaken for 1 hour at RT, 600 rpm. Antibodies were prepared in Antibody Detection buffer (1% Blocker A in 1×TBST). MSD plate was washed 3 times with 150 ul 1×TBST per well and 2×MSD reading buffer was added, 150 ul per well, and diluted from 4× with water. MSD instrument was then read.
Data Analysis: The percentage of relative level of SMARCA2 level was calculated following equation below.
LC: A2780, SMARCA2 negative cells. HC: NCI-H1299 cells treated with DMSO.
The letter codes for the percentage of SMARCA2 degradation after 24 hours (Dmax %) include: A (>90% degradation), B (>70-90% degradation), C (50-70% degradation), and D (<50% degradation).

T1 sequence (P51531 whole entry): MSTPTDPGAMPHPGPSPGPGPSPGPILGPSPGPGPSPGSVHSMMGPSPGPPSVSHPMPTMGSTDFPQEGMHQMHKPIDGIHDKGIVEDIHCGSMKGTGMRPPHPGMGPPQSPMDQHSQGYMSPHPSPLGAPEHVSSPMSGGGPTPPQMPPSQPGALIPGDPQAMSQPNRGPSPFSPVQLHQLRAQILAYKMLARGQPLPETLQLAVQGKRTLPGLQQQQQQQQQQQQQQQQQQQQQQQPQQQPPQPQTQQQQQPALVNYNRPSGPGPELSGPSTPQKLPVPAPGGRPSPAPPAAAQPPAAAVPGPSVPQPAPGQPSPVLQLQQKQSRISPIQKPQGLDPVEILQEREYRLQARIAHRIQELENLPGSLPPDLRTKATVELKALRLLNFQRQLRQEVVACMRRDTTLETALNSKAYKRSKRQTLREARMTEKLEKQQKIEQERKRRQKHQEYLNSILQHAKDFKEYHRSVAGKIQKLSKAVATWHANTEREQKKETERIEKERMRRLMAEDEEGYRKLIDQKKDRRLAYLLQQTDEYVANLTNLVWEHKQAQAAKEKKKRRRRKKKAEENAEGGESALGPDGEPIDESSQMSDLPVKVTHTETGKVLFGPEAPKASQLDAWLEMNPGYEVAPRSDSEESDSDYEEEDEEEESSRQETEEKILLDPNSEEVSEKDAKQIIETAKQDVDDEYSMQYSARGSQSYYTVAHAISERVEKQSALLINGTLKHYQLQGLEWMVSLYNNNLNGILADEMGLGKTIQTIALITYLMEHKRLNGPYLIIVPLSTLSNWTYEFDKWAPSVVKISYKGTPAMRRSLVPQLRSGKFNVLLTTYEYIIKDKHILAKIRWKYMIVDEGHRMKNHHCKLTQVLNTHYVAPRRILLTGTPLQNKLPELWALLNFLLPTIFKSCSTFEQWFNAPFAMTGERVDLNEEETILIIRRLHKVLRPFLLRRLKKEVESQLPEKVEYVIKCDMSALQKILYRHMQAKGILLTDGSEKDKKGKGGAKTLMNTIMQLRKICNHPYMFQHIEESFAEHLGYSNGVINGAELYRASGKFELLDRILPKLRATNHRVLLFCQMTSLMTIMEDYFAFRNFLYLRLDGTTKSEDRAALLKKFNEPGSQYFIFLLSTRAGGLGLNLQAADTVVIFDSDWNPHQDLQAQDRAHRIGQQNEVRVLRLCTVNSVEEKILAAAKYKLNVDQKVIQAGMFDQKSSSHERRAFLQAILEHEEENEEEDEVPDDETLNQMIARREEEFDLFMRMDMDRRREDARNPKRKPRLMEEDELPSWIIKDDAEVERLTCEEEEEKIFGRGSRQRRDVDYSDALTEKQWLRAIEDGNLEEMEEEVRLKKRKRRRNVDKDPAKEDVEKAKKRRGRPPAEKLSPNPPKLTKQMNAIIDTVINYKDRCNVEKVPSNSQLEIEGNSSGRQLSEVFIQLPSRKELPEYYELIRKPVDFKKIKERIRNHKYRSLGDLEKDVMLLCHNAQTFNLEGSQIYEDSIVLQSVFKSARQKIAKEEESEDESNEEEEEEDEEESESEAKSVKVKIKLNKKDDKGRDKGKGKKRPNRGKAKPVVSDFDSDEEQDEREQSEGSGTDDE

`Nc1nnc(-c2ccccc2O)cc1-c1ccc(CN2CCN(CCCCCCCc3ccc4c(c3)c3cccnc3n4C3CCC(=O)NC3=O)CC2)cc1` (stereo not drawn) [I-75] displayed a Dmax of 70 to 90%.

Take `Nc1nnc(-c2ccccc2O)cc1-c1ccc(CN2CCN(CCCCCCCCc3ccc4c(c3)c3cccnc3n4C3CCC(=O)NC3=O)CC2)cc1` (stereo not drawn) [I-76]: the Dmax is over 90%.

Compound `Nc1nnc(-c2ccccc2O)cc1-c1ccc(CN2CCN(CCCCCCCCCc3ccc4c(c3)c3cccnc3n4C3CCC(=O)NC3=O)CC2)cc1` (stereo not drawn) [I-77] came in with a Dmax of over 90%.

As for `Nc1nnc(-c2ccccc2O)cc1-c1ccc(CN2CCN(CCCCCc3cccc4c3c3cccnc3n4C3CCC(=O)NC3=O)CC2)cc1` (stereo not drawn) [I-78], the Dmax lay in the range of 50 to 70%.

The compound `Nc1nnc(-c2ccccc2O)cc1-c1ccc(CN2CCN(CCCCCCc3cccc4c3c3cccnc3n4C3CCC(=O)NC3=O)CC2)cc1` (stereo not drawn) [I-79] returned a Dmax of 50 to 70%.

`Nc1nnc(-c2ccccc2O)cc1-c1ccc(CN2CCN(CCCCCCCc3cccc4c3c3cccnc3n4C3CCC(=O)NC3=O)CC2)cc1` (stereo not drawn) [I-80]: the Dmax is over 90%.

`Nc1nnc(-c2ccccc2O)cc1-c1ccc(CN2CCN(CCCCCc3ccnc4c3c3ccccc3n4C3CCC(=O)NC3=O)CC2)cc1` (stereo not drawn) [I-81] returned a Dmax of 70 to 90%.

Consider `Nc1nnc(-c2ccccc2O)cc1-c1ccc(CN2CCN(CCCCCCc3ccnc4c3c3ccccc3n4C3CCC(=O)NC3=O)CC2)cc1` (stereo not drawn) [I-82], for which the Dmax fell in the range of 70 to 90%.

`Nc1nnc(-c2ccccc2O)cc1-c1ccc(CN2CCN(CCCCCCCc3ccnc4c3c3ccccc3n4C3CCC(=O)NC3=O)CC2)cc1` (stereo not drawn) [I-83] gave a Dmax of 70 to 90%.

For `Nc1nnc(-c2ccccc2O)cc1-c1ccc(CN2CCN(CCCCOCCCc3ccc4c(c3)c3cccnc3n4C3CCC(=O)NC3=O)CC2)cc1` (stereo not drawn) [I-84], the Dmax lay within 50 to 70%.

Compound `CN(Cc1ccc(N2CCN(c3cc(-c4ccccc4O)nnc3N)CC2)cc1)CC1CCN(Cc2ccc3c(c2)c2cccnc2n3C2CCC(=O)NC2=O)CC1` (stereo not drawn) [I-85] displayed a Dmax of over 90%.

`Nc1nnc(-c2ccccc2O)cc1-c1ccc(CN2CCN(CCCc3ccc4c(c3)c3cccnc3n4C3CCC(=O)NC3=O)CC2)cc1` (stereo not drawn) [I-86] showed a Dmax of under 50%.

For `CN(Cc1ccc(N2CCN(c3cc(-c4ccccc4O)nnc3N)CC2)cc1)CC1CCN(Cc2cccc3c2c2cccnc2n3C2CCC(=O)NC2=O)CC1` (stereo not drawn) [I-87], the Dmax was under 50%.

Regarding `Nc1nnc(-c2ccccc2O)cc1-c1ccc(CNCCOCCOCCCc2cnc3c(c2)c2ccccc2n3C2CCC(=O)NC2=O)cc1` (stereo not drawn) [I-88], the Dmax lay in the range of 70 to 90%.

`Nc1nnc(-c2ccccc2O)cc1-c1cnn(CC2CCN(CCCCOCCCc3cccc4c3c3cccnc3n4C3CCC(=O)NC3=O)CC2)c1` (stereo not drawn) [I-89] gave a maximal degradation (Dmax) of under 50%.

The compound `Nc1nnc(-c2ccccc2O)cc1N1CCN(Cc2cccc3c2c2cccnc2n3C2CCC(=O)NC2=O)CC1` (stereo not drawn) [I-90] had a Dmax of under 50%.

Take `Nc1nnc(-c2ccccc2O)cc1N1CCN(CCCc2cccc3c2c2cccnc2n3C2CCC(=O)NC2=O)CC1` (stereo not drawn) [I-91]: the maximal degradation (Dmax) was under 50%.

The compound `Nc1nnc(-c2ccccc2O)cc1N1CCN(CCCCCc2cccc3c2c2cccnc2n3C2CCC(=O)NC2=O)CC1` (stereo not drawn) [I-92] had a Dmax of under 50%.

With `CN(Cc1ccc(N2CCN(c3cc(-c4ccccc4O)nnc3N)CC2)cc1)Cc1cccc2c1c1cccnc1n2C1CCC(=O)NC1=O` (stereo not drawn) [I-93], the Dmax was under 50%.

As to `CN(CCCc1cccc2c1c1cccnc1n2C1CCC(=O)NC1=O)Cc1ccc(N2CCN(c3cc(-c4ccccc4O)nnc3N)CC2)cc1` (stereo not drawn) [I-94], the Dmax is 50 to 70%.

`CN(CCCCCc1cccc2c1c1cccnc1n2C1CCC(=O)NC1=O)Cc1ccc(N2CCN(c3cc(-c4ccccc4O)nnc3N)CC2)cc1` (stereo not drawn) [I-95] came in with a Dmax of under 50%.

For the compound `Nc1nnc(-c2ccccc2O)cc1-c1cnn(CC2CCN(Cc3cccc4c3c3cccnc3n4C3CCC(=O)NC3=O)CC2)c1` (stereo not drawn) [I-96], the Dmax lay in the range of 50 to 70%.

In the case of `Nc1nnc(-c2ccccc2O)cc1-c1cnn(CC2CCN(CCCc3cccc4c3c3cccnc3n4C3CCC(=O)NC3=O)CC2)c1` (stereo not drawn) [I-97], the Dmax was over 90%.

Turning to `Nc1nnc(-c2ccccc2O)cc1-c1cnn(CC2CCN(CCCCCc3cccc4c3c3cccnc3n4C3CCC(=O)NC3=O)CC2)c1` (stereo not drawn) [I-98], the Dmax is over 90%.

`Nc1nnc(-c2ccccc2O)cc1N1CCN(CCCc2ccnc3c2c2ccccc2n3C2CCC(=O)NC2=O)CC1` (stereo not drawn) [I-99] gave a Dmax of under 50%.

For `Nc1nnc(-c2ccccc2O)cc1N1CCN(CCCCCc2ccnc3c2c2ccccc2n3C2CCC(=O)NC2=O)CC1` (stereo not drawn) [I-100], the Dmax is under 50%.

`CN(CCCc1ccnc2c1c1ccccc1n2C1CCC(=O)NC1=O)Cc1ccc(N2CCN(c3cc(-c4ccccc4O)nnc3N)CC2)cc1` (stereo not drawn) [I-101]: the Dmax is under 50%.

The compound `CN(CCCCCc1ccnc2c1c1ccccc1n2C1CCC(=O)NC1=O)Cc1ccc(N2CCN(c3cc(-c4ccccc4O)nnc3N)CC2)cc1` (stereo not drawn) [I-102] returned a Dmax of 50 to 70%.

Take `Nc1nnc(-c2ccccc2O)cc1-c1cnn(CC2CCN(CCCc3ccnc4c3c3ccccc3n4C3CCC(=O)NC3=O)CC2)c1` (stereo not drawn) [I-103]: the Dmax was over 90%.

In turn, `Nc1nnc(-c2ccccc2O)cc1-c1cnn(CC2CCN(CCCCCc3ccnc4c3c3ccccc3n4C3CCC(=O)NC3=O)CC2)c1` (stereo not drawn) [I-104] returned a Dmax of over 90%.

For the compound `Nc1nnc(-c2ccccc2O)cc1-c1ccc(CN2CCN(Cc3ccc4c(c3)c3cccnc3n4C3CCC(=O)NC3=O)CC2)cc1` (stereo not drawn) [I-105], the Dmax is under 50%.

Turning to `Nc1nnc(-c2ccccc2O)cc1-c1cnn(C2CCN(CCCCc3ccc4c(c3)c3cccnc3n4C3CCC(=O)NC3=O)CC2)c1` (stereo not drawn) [I-133], the Dmax is over 90%.

As for `Nc1nnc(-c2ccccc2O)cc1-c1cnn(CC2CCN(CCCCc3ccc4c(c3)c3cccnc3n4C3CCC(=O)NC3=O)CC2)c1` (stereo not drawn) [I-134], the Dmax was in the range of 70 to 90%.

Compound `Nc1nnc(-c2ccccc2O)cc1-c1cnn(C2CCN(CCCCCc3ccc4c(c3)c3cccnc3n4C3CCC(=O)NC3=O)CC2)c1` (stereo not drawn) [I-135] yielded a Dmax of 50 to 70%.

`Nc1nnc(-c2ccccc2O)cc1-c1cnn(C2CCN(CCCCCc3ccnc4c3c3ccccc3n4C3CCC(=O)NC3=O)CC2)c1` (stereo not drawn) [I-137] displayed a Dmax of over 90%.

As to `Nc1nnc(-c2ccccc2O)cc1N1CC2CCC(C1)N2c1ncc(C2CCN(CCCc3ccc4c(c3)c3cccnc3n4C3CCC(=O)NC3=O)CC2)cn1` (stereo not drawn) [I-138, 3-[6-[3-[4-[2-[3-[3-amino-6-(2-hydroxyphenyl)pyridazin-4-yl]-3,8-diazabicyclo[3.2.1]octan-8-yl]pyrimidin-5-yl]-1-piperidyl]propyl]pyrido[2,3-b]indol-9-yl]piperidine-2,6-dione], the Dmax was over 90%.

`Nc1nnc(-c2ccccc2O)cc1-c1cnn(CC2COC(CCCCc3ccc4c(c3)c3cccnc3n4C3CCC(=O)NC3=O)OC2)c1` (stereo not drawn) [I-140, 3-(6-(4-(5-((4-(3-amino-6-(2-hydroxyphenyl)pyridazin-4-yl)-1H-pyrazol-1-yl)methyl)-1,3-dioxan-2-yl)butyl)-9H-pyrido[2,3-b]indol-9-yl)piperidine-2,6-dione]: the maximal degradation (Dmax) was under 50%.

Turning to `Nc1nnc(-c2ccccc2O)cc1-c1cnn([C@H]2CCCN(CCCc3ccc4c(c3)c3cccnc3n4C3CCC(=O)NC3=O)C2)c1` (stereo partly drawn) [I-141, 3-[6-[3-[(3S)-3-[4-[3-amino-6-(2-hydroxyphenyl)pyridazin-4-yl]pyrazol-1-yl]-1-piperidyl]propyl]pyrido[2,3-b]indol-9-yl]piperidine-2,6-dione], the Dmax lay in the range of 70 to 90%.

The compound `Nc1nnc(-c2ccccc2O)cc1-c1cnn(C2CCCN(CCCc3ccc4c(c3)c3cccnc3n4C3CCC(=O)NC3=O)C2)c1` (stereo not drawn) [I-142] displayed a Dmax of under 50%.

For `Nc1nnc(-c2ccccc2O)cc1-c1cnn(C2CCCN(CCCc3ccnc4c3c3ccccc3n4C3CCC(=O)NC3=O)C2)c1` (stereo not drawn) [I-143], the Dmax is over 90%.

On to `Nc1nnc(-c2ccccc2O)cc1-c1cnn(C2CCN(C3CCC(c4ccc5c(c4)c4cccnc4n5C4CCC(=O)NC4=O)CC3)CC2)c1` (stereo not drawn) [I-144], for which the Dmax is over 90%.

Regarding `Nc1nnc(-c2ccccc2O)cc1N1CC2CCC(C1)N2c1ncc(C2CCN(CCCc3ccnc4c3c3ccccc3n4C3CCC(=O)NC3=O)CC2)cn1` (stereo not drawn) [I-145, 3-(4-(3-(4-(2-(3-(3-amino-6-(2-hydroxyphenyl)pyridazin-4-yl)-3,8-diazabicyclo[3.2.1]octan-8-yl)pyrimidin-5-yl)piperidin-1-yl)propyl)-9H-pyrido[2,3-b]indol-9-yl)piperidine-2,6-dione], the Dmax was over 90%.

As a reminder, the Dmax is the largest share of the target that was removed. A low value points to a partial loss of target.

(Values after patent US12454520B2, “Protein degraders and uses thereof” (Kymera Therapeutics, Inc., priority 2018, dated 2025).)
